Experiments:
Type in all cases: physicochemical
[1] = oil ink performance test: viscosity and surface tension; parameters: surface tension (dyne/cm^2): unit not given here; conditions: for surface tension (dyne/cm^2): oil ink in dodecane; for viscosity (cp): oil ink: 1.0 g dye dispersed in 10 g dodecane, filtered 0.45 μm
Procedure: 1.0 g of purified dye (dis-azo compound of the present invention) weighed was dispersed in 10 g of dodecane and then heated to 80° C. and stirred for one hour. After that, the mixture solution was removed to a ultrasonic oscillator and oscillated for one hour and then filtered through 0.45 μm filter to obtain the oil ink of the present invention. […] According to Table 3, ail of the oil ink of the present invention fulfills elementary conditions of oil ink for electrowetting display.

[2] = oil ink tested by UV-Vis spectrophotometer; parameters: FoM / value of a / value of b: scale not given here; conditions: oil ink in dodecane; for FoM: Figure of Merit = ε×C; for full width at half maximum (nm): wavelength range at half height of absorption at λ max
Procedure: 1.0 g of purified dye (dis-azo compound of the present invention) weighed was dispersed in 10 g of dodecane and then heated to 80° C. and stirred for one hour. After that, the mixture solution was removed to a ultrasonic oscillator and oscillated for one hour and then filtered through 0.45 μm filter to obtain the oil ink of the present invention. The oil ink of the present invention was tested by UV-Vis spectrophotometer. According to Table 3, ail of the oil ink of the present invention fulfills elementary conditions of oil ink for electrowetting display.

solubility in dodecane = assay: solubility in dodecane
[3] = maximum absorption wavelength and molar absorption coefficient in dodecane; conditions: for wavelength (nm)/dodecane: maximum absorption wavelength

Compound	surface tension (dyne/cm^2) [1]	viscosity (cp) [1]	FoM [2]	full width at half maximum (nm) [2]	solubility (%) (solubility in dodecane)	ε (molar absorption coefficient) [3]	wavelength (nm)/dodecane [3]	value of L ([2]; hue)	value of a ([2]; hue)	value of b ([2]; hue)
CCCCc1ccc(N=Nc2ccc(N=Nc3ccc4c5c(cccc35)NC(CC(C)C)(CC(C)C)N4)c3ccccc23)cc1 [D4-C4,4]	24.5	2.21 cp	191	250 nm	4.00%	3.41 × 10^3	560 nm			
CCCCCCCCc1ccc(N=Nc2ccc(N=Nc3ccc4c5c(cccc35)NC(CC)(CC)N4)c3ccccc23)cc1 [D8-C2,2]	23.2	2.42 cp	526	300 nm	6.00%	7.05 × 10^3	580 nm			
CCCCCCCCc1ccc(N=Nc2ccc(N=Nc3ccc4c5c(cccc35)NC(CC(C)C)(CC(C)C)N4)c3ccccc23)cc1 [D8-C4,4]	23.5	2.33 cp	320	300 nm	2.96%	9.50 × 10^3	580 nm			
CCCCCCCCCCc1ccc(N=Nc2ccc(N=Nc3ccc4c5c(cccc35)NC(CC(C)C)(CC(C)C)N4)c3ccccc23)cc1 [D10-C4,4]	24.8	2.55 cp	136	320 nm	1.23%	9.95 × 10^3	590 nm			

The remaining lines, values ahead:

surface tension (dyne/cm^2) [1]	viscosity (cp) [1]	FoM [2]	full width at half maximum (nm) [2]	solubility (%) (solubility in dodecane)	ε (molar absorption coefficient) [3]	wavelength (nm)/dodecane [3]	value of L ([2]; hue)	value of a ([2]; hue)	value of b ([2]; hue)	Compound
23.6	2.42 cp	232	320 nm	2.15%	9.11 × 10^3	560 nm				CCCCCCCCCCc1ccc(N=Nc2ccc(N=Nc3ccc4c5c(cccc35)NC(C)(CCCC)N4)c3ccccc23)cc1 (racemic) [D10-C1,4]
25.1	2.35 cp	779	320 nm	8.00%	8.13 × 10^3	580 nm	0.01	0.38	−0.18	CCCCCCCCCCc1ccc(N=Nc2ccc(N=Nc3ccc4c5c(cccc35)NC(CC)(CC)N4)c3ccccc23)cc1 [D10-C2,2]
